# Reference: patent US12371454B2, “Cyclic peptide compound having Kras inhibitory action” (priority 2019, dated 2025)
# Starred links: 1 amine or outer side, 2 acyl side, 3 side chain; linkers in the order of their positions; H or OH if unused. Positions of bridges follow the written chain, without caps; N, C: chain ends. Non-standard residues stand in square brackets, D forms with d. Residues, ends and D or L forms follow the SMILES beside them. *: point of attachment. hPhe(3,5-F2-4-CF3) = N[C@@H](CCc1cc(F)c(C(F)(F)F)c(F)c1)C(=O)O; hPhe(3-Cl-4-CF3) = N[C@@H](CCc1ccc(C(F)(F)F)c(Cl)c1)C(=O)O; hPhe(3-F,4-CF3) = N[C@@H](CCc1ccc(C(F)(F)F)c(F)c1)C(=O)O; NMePhe(4-CF3) = CN[C@@H](Cc1ccc(C(F)(F)F)cc1)C(=O)O; NEtAsp = CCN([C@@H](CC(=O)[*:3])C(=O)[*:2])[*:1]; 3Oxa8azabicyclo(3.2.1)octane = C1CC2COCC1N2*; X6 = CCN([C@@H](CC1CCCCC1)C(=O)[*:2])[*:1]; NMedβ3hAla = C[C@H](CC(=O)[*:2])N(C)[*:1]; NMeGly(cPent) = CN[C@H](C(=O)O)C1CCCC1; Pro(4,4-F2) = O=C(O)[C@@H]1CC(F)(F)CN1; NMeGly(cBu) = CN[C@H](C(=O)O)C1CCC1; NMeCha = CN[C@@H](CC1CCCCC1)C(=O)O; Hyp = O=C(O)[C@@H]1C[C@@H](O)CN1; NMeAhp(2) = CCCCC[C@H](NC)C(=O)O; NMeChg = CN[C@H](C(=O)O)C1CCCCC1; NMeI = CC[C@H](C)[C@H](NC)C(=O)O; NMeD = CN[C@@H](CC(=O)O)C(=O)O; NMeL = CN[C@@H](CC(C)C)C(=O)O; NMeAc5c = CNC1(C(=O)O)CCCC1; NMeV = CN[C@H](C(=O)O)C(C)C; d(β3hA) = C[C@@H](N)CC(=O)O; NMeS = CN[C@@H](CO)C(=O)O; Morpholide = C1CN(*)CCO1; NMeA = CN[C@@H](C)C(=O)O; Piperidide = C1CCN(*)CC1; Pyrrolidide = C1CCN(*)C1; dNMeA = CN[C@H](C)C(=O)O; Ac5c = NC1(C(=O)O)CCCC1; Aze = O=C(O)[C@@H]1CCN1; CH2CMe2OH = CC(C)(O)C*; X30 = COc1cccc(C*)c1; NEtG = CCNCC(=O)O; Sar = CNCC(=O)O; Propyl = CCC*
# System: Human pancreatic cancer cell line AsPC-1
# Assay: Measurement of AsPC-1 cell growth inhibition (AsPC-1 CGI)
# Type: cell-based
# Conditions: 96 h
# Outline: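 AsPC-1 cells in 15% FBS RPMI-1640 were exposed to test compound for 96 hours at 37° C, with CellTiter-Glo as endpoint.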
row,SMILES,IC50
1,"CC[C@H](C)[C@@H]1NC(=O)[C@H](CC(C)C)N(C)C(=O)C[C@@H](C)N(C)C(=O)[C@H](CC(C)C)NC(=O)C2(CCCC2)N(C)C(=O)[C@H](CC(C)C)NC(=O)[C@H](CCc2ccc(C(F)(F)F)c(F)c2)NC(=O)CN(C)C(=O)[C@H](CC2CCCCC2)N(C)C(=O)CN(C)C(=O)CN(C)C1=O [Compound 2] (cyclo(I[Sar][Sar][NMeCha][Sar][hPhe(3-F,4-CF3)]L[NMeAc5c]L[NMedβ3hAla][NMeL]))",100 to 500 nM
2,CCCCC[C@H]1C(=O)N[C@@H]([C@@H](C)CC)C(=O)N(C)[C@@H](C)C(=O)N2CC[C@H]2C(=O)N(C)[C@@H](COCCC)C(=O)N(C)CC(=O)N[C@@H](CCc2ccc(C(F)(F)F)c(Cl)c2)C(=O)N2CCC[C@H]2C(=O)NC2(CCCC2)C(=O)N(C)[C@@H](C2CCCC2)C(=O)N(C)[C@H](C(=O)N2C3CCC2COC3)CC(=O)N1C [Compound 622] ([NMeAhp(2)]I[NMeA][Aze][NMeS](Propyl)[Sar][hPhe(3-Cl-4-CF3)]P[Ac5c][NMeGly(cPent)][NMeD]-{3Oxa8azabicyclo(3.2.1)octane}; lactam N-11),20 to 50 nM
3,CC[C@H](C)[C@@H]1NC(=O)[C@H](CC(C)C)N(C)C(=O)C[C@@H](C(=O)N2CCCCC2)N(CC)C(=O)[C@H](C2CCCC2)N(C)C(=O)C2(CCCC2)NC(=O)[C@@H]2CCCN2C(=O)[C@H](CCc2ccc(C(F)(F)F)c(Cl)c2)NC(=O)CN(C)C(=O)[C@H](C2CCC2)N(C)C(=O)[C@@H]2CCN2C(=O)[C@H](C)N(C)C1=O [Compound 1047] ([NMeL]I[NMeA][Aze][NMeGly(cBu)][Sar][hPhe(3-Cl-4-CF3)]P[Ac5c][NMeGly(cPent)][NEtAsp]-Piperidide; lactam N-11),50 to 100 nM
4,CCCCC[C@H]1C(=O)N[C@@H]([C@@H](C)CC)C(=O)N[C@@H](C)C(=O)N2CC[C@H]2C(=O)N(C)[C@@H](CC2CCCCC2)C(=O)N(C)CC(=O)N[C@@H](CCc2ccc(C(F)(F)F)c(Cl)c2)C(=O)N2CCC[C@H]2C(=O)NC2(CCCC2)C(=O)N(C)[C@@H](C2CCCC2)C(=O)N(C)[C@H](C(=O)N2CCOCC2)CC(=O)N1C [Compound 263] ([NMeAhp(2)]IA[Aze][NMeCha][Sar][hPhe(3-Cl-4-CF3)]P[Ac5c][NMeGly(cPent)][NMeD]-Morpholide; lactam N-11),20 to 50 nM
5,"CC[C@H](C)[C@@H]1NC(=O)[C@H](CC(C)C)N(C)C(=O)C[C@@H](C(=O)N(C)C)N(C)C(=O)[C@H](C2CCCC2)N(C)C(=O)C2(CCCC2)NC(=O)[C@@H]2CCCN2C(=O)[C@H](CCc2ccc(C(F)(F)F)c(F)c2)NC(=O)CN(C)C(=O)[C@H](CC2CCCCC2)N(C)C(=O)[C@@H]2CCN2C(=O)[C@H](C)NC1=O [Compound 1164] ([NMeL]IA[Aze][NMeCha][Sar][hPhe(3-F,4-CF3)]P[Ac5c][NMeGly(cPent)][NMeD]-NMe2; lactam N-11)",20 to 50 nM
6,CC[C@H](C)[C@@H]1NC(=O)[C@H](CC(C)C)N(C)C(=O)C[C@@H](C(=O)N2CCCC2)NC(=O)[C@H]([C@@H](C)CC)N(C)C(=O)C2(CCCC2)NC(=O)[C@@H]2CCCN2C(=O)[C@H](CCc2ccc(C(F)(F)F)c(Cl)c2)NC(=O)CN(C)C(=O)[C@H](CC2CCCCC2)N(C)C(=O)[C@@H]2CCN2C(=O)[C@H](C)N(C)C1=O [Compound 453] ([NMeL]I[NMeA][Aze][NMeCha][Sar][hPhe(3-Cl-4-CF3)]P[Ac5c][NMeI]D-Pyrrolidide; lactam N-11),50 to 100 nM
7,CC[C@H](C)[C@@H]1NC(=O)[C@H](C2CCC2)N(C)C(=O)C[C@@H](C(=O)N2CCCCC2)N(C)C(=O)[C@H]([C@@H](C)CC)N(C)C(=O)C2(CCCC2)NC(=O)[C@@H]2CCCN2C(=O)[C@H](CCc2ccc(C(F)(F)F)c(Cl)c2)NC(=O)CN(C)C(=O)[C@H](CC2CCCCC2)N(C)C(=O)[C@@H]2CCN2C(=O)[C@H](C)N(C)C1=O [Compound 959] ([NMeGly(cBu)]I[NMeA][Aze][NMeCha][Sar][hPhe(3-Cl-4-CF3)]P[Ac5c][NMeI][NMeD]-Piperidide; lactam N-11),20 to 50 nM
8,"CC[C@H](C)[C@@H]1NC(=O)[C@H](CC(C)C)N(C)C(=O)C[C@@H](C)N(C)C(=O)[C@H](C2CCCC2)N(C)C(=O)C2(CCCC2)NC(=O)[C@@H]2CC(F)(F)CN2C(=O)[C@H](CCc2cc(F)c(C(F)(F)F)c(F)c2)NC(=O)CN(C)C(=O)[C@H](Cc2ccc(C(F)(F)F)cc2)N(C)C(=O)[C@@H]2CCN2C(=O)[C@H](C)N(C)C1=O [Compound 900] (cyclo([Ac5c][NMeGly(cPent)][NMedβ3hAla][NMeL]I[NMeA][Aze][NMePhe(4-CF3)][Sar][hPhe(3,5-F2-4-CF3)][Pro(4,4-F2)]))",20 to 50 nM
9,CC[C@H](C)[C@@H]1NC(=O)[C@H](CC(C)C)N(C)C(=O)C[C@@H](C(=O)N(C)C)NC(=O)[C@H]([C@@H](C)CC)N(C)C(=O)C2(CCCC2)NC(=O)[C@@H]2CCCN2C(=O)[C@H](CCc2ccc(C(F)(F)F)c(Cl)c2)NC(=O)CN(C)C(=O)[C@H](CC2CCCCC2)N(C)C(=O)[C@@H]2CCN2C(=O)[C@H](C)N(C)C1=O [Compound 568] ([NMeL]I[NMeA][Aze][NMeCha][Sar][hPhe(3-Cl-4-CF3)]P[Ac5c][NMeI]D-NMe2; lactam N-11),100 to 500 nM
10,CC[C@H](C)[C@@H]1NC(=O)[C@H](CC(C)C)N(C)C(=O)C[C@@H](C(=O)N2CCCCC2)N(C)C(=O)[C@H](C2CCCCC2)N(C)C(=O)C2(CCCC2)NC(=O)[C@H](COCC(C)(C)O)N(C)C(=O)[C@H](CCc2ccc(C(F)(F)F)c(Cl)c2)NC(=O)CN(C)C(=O)[C@H](CC2CCCCC2)N(C)C(=O)CN(C)C(=O)CN(C)C1=O [Compound 789] ([NMeL]I[Sar][Sar][NMeCha][Sar][hPhe(3-Cl-4-CF3)][NMeS](CH2CMe2OH)[Ac5c][NMeChg][NMeD]-Piperidide; lactam N-11),100 to 500 nM
11,"CC[C@H](C)[C@@H]1NC(=O)[C@H](CC(C)C)N(C)C(=O)C[C@@H](C(=O)N2CCCCC2)N(C)C(=O)[C@H](CC(C)C)N(C)C(=O)C2(CCCC2)NC(=O)[C@@H]2C[C@@H](OCc3cccc(OC)c3)CN2C(=O)[C@H](CCc2ccc(C(F)(F)F)c(F)c2)NC(=O)CN(C)C(=O)[C@H](CC2CCCCC2)N(C)C(=O)CN(C)C(=O)CN(C)C1=O [Compound 2131] ([NMeL]I[Sar][Sar][NMeCha][Sar][hPhe(3-F,4-CF3)][Hyp](X30)[Ac5c][NMeL][NMeD]-Piperidide; lactam N-11)",100 to 500 nM
12,CC[C@H](C)[C@@H]1NC(=O)[C@H](C)N(C)C(=O)C[C@@H](C)NC(=O)[C@H](C2CCCC2)N(C)C(=O)C2(CCCC2)NC(=O)[C@@H]2CCCN2C(=O)[C@H](CCc2ccc(C(F)(F)F)c(Cl)c2)NC(=O)[C@@H](C)N(C)C(=O)[C@H](Cc2ccc(C(F)(F)F)cc2)N(C)C(=O)[C@@H]2CCN2C(=O)[C@H](C)N(C)C1=O [Compound 1497] (cyclo([Ac5c][NMeGly(cPent)][d(β3hA)][NMeA]I[NMeA][Aze][NMePhe(4-CF3)][dNMeA][hPhe(3-Cl-4-CF3)]P)),100 to 500 nM
13,CCCOC[C@H]1C(=O)N(CC)CC(=O)N[C@@H](CCc2ccc(C(F)(F)F)c(Cl)c2)C(=O)N2CCC[C@H]2C(=O)NC2(CCCC2)C(=O)N(C)[C@@H](C2CCCC2)C(=O)N(C)[C@H](C(=O)N2C3CCC2COC3)CC(=O)N(C)[C@@H](CC(C)C)C(=O)N[C@@H]([C@@H](C)CC)C(=O)N(C)[C@@H](C)C(=O)N2CC[C@H]2C(=O)N1C [Compound 1338] ([NMeL]I[NMeA][Aze][NMeS](Propyl)[NEtG][hPhe(3-Cl-4-CF3)]P[Ac5c][NMeGly(cPent)][NMeD]-{3Oxa8azabicyclo(3.2.1)octane}; lactam N-11),50 to 100 nM
14,CC[C@H](C)[C@@H]1NC(=O)[C@H](CC(C)C)N(C)C(=O)C[C@@H](C(=O)N2CCCCC2)N(C)C(=O)[C@H](C(C)C)N(C)C(=O)C2(CCCC2)NC(=O)[C@@H]2CCCN2C(=O)[C@H](CCc2ccc(C(F)(F)F)c(Cl)c2)NC(=O)CN(C)C(=O)[C@H](CC2CCCCC2)N(CC)C(=O)[C@@H]2CCN2C(=O)[C@H](C)N(C)C1=O [Compound 23] ([NMeL]I[NMeA][Aze][X6][Sar][hPhe(3-Cl-4-CF3)]P[Ac5c][NMeV][NMeD]-Piperidide; lactam N-11),100 to 500 nM
15,"CC[C@H](C)[C@@H]1NC(=O)[C@H](CC(C)C)N(C)C(=O)C[C@@H](C(=O)N2CCCCC2)N(C)C(=O)[C@H](C2CCCCC2)N(C)C(=O)C2(CCCC2)NC(=O)[C@@H]2C[C@@H](O)CN2C(=O)[C@H](CCc2ccc(C(F)(F)F)c(Cl)c2)NC(=O)CN(C)C(=O)[C@H](CC2CCCCC2)N(C)C(=O)CN(C)C(=O)CN(C)C1=O [Compound 1376, (3S,9S,18S,21S,25S,28S,34S,36R)-3-[2-[3-chloro-4-(trifluoromethyl)phenyl]ethyl]-28-cyclohexyl-9-(cyclohexylmethyl)-36-hydroxy-21-isobutyl-7,10,13,16,22,26,29-heptamethyl-18-[(1S)-1-methylpropyl]-25-(piperidine-1-carbonyl)spiro[1,4,7,10,13,16,19,22,26,29,32-undecazabicyclo[32.3.0]heptatriacontane-31,1′-cyclopentane]-2,5,8,11,14,17,20,23,27,30,33-undecone] ([NMeL]I[Sar][Sar][NMeCha][Sar][hPhe(3-Cl-4-CF3)][Hyp][Ac5c][NMeChg][NMeD]-Piperidide; lactam N-11)",100 to 500 nM
16,CC[C@H](C)[C@@H]1NC(=O)[C@H](CC(C)C)N(C)C(=O)C[C@@H](C)N(C)C(=O)[C@H](C(C)C)N(C)C(=O)C2(CCCC2)NC(=O)[C@@H]2CCCN2C(=O)[C@H](CCc2ccc(C(F)(F)F)c(Cl)c2)NC(=O)CN(C)C(=O)[C@H](CC2CCCCC2)N(C)C(=O)[C@@H]2CCN2C(=O)CN(C)C1=O [Compound 1648] (cyclo([Ac5c][NMeV][NMedβ3hAla][NMeL]I[Sar][Aze][NMeCha][Sar][hPhe(3-Cl-4-CF3)]P)),100 to 500 nM
17,"CC[C@H](C)[C@@H]1NC(=O)[C@H](CC(C)C)N(C)C(=O)C[C@@H](C(=O)N2CCCC2)N(C)C(=O)[C@H]([C@@H](C)CC)N(C)C(=O)C2(CCCC2)NC(=O)[C@@H]2CCCN2C(=O)[C@H](CCc2ccc(C(F)(F)F)c(F)c2)NC(=O)CN(C)C(=O)[C@H](C2CCCC2)N(C)C(=O)[C@@H]2CCN2C(=O)[C@H](C)N(C)C1=O [Compound 313] ([NMeL]I[NMeA][Aze][NMeGly(cPent)][Sar][hPhe(3-F,4-CF3)]P[Ac5c][NMeI][NMeD]-Pyrrolidide; lactam N-11)",20 to 50 nM
